Structures can show the parent of a compound that is named as a salt.
Columns and labels:
[1] = target: p45 v-abl tyrosine kinase; experiment: p45 v-abl Kinase Assay ((Val^5)-angiotensin II phosphorylation); format: biochemical, Abelson murine leukemia virus; conditions: purified abl-kinase 40 ng; peptide 2 mM, ATP 50 μM; pH 8.0, 30° C.
Description: The enzyme used in our tests is the p45 v-abl tyrosine kinase which represents the catalytic domain of the Abelson tyrosine kinase (isolated from the Abelson murine leukemia virus). The p45 v-abl kinase is produced and isolated as described by Wang et al. in J.Biol.Chem. 260, 64 (1985) and by Ferguson et al. in J.Biol.Chem. 260, 3652 (1985) and in Biochem.J. 257, 321 (1989).
(Val^5)-angiotensin II phosphorylation is performed by incubation with 40 ng of purified abl-kinase and (γ-^32 P) ATP, in 50 μl of buffer containing Tris-HCl 25 mM, pH 8.0, MgCl2 10 mM and dithiothreitol 0.1 mM (kinase buffer). The reaction mixture is incubated for the indicated time at 30° C. and the reaction stopped by adding 50 μl of 5% trichloracetic acid. After a brief incubation on ice the tubes are centrifuged. The supernatants are spotted on phosphocellulase paper squares (Whatman P-81) and washed extensively in acetic acid. The radioactivity bound to dried phosphocellulose squares is measured in a liquid scintillation counter. IC50 values are calculated from triplicated determination of each experimental point. Each inhibitor is tested at concentrations ranging from […] in the presence of fixed concentrations of peptide (2 mM) and ATP (50 μM).

K562 cells = experiment: K562 Cell Growth Inhibition Assay; format: cell-based; conditions: human myelogenous leukemia cell line, cell count after 72 h vs untreated control
Description: K562 cells, a human myelogenous leukemia cell line, were seeded into a 24 wells tissue culture plate (Falcon 3047) (10000/well) in the presence of increasing concentrations of the compounds.
After 72 h, cells were harvested and were counted using a cell counter (Coulter Counter-ZM). The percent of inhibition was evaluated in respect to the untreated control cells.

Row | Structure (SMILES) | IC50 [1] [µM] | IC50 (K562 cells; K562) [µM] | IC50 (K562 cells) [µM]
1 | CC(NC(=O)OC(C)(C)C)C(=O)Nc1ccc2c(c1)C(=Cc1cc(O)c3c(c1O)CCCC3)C(=O)N2 (centres unmarked) [5-(N-tert-butoxycarbonylalanylamino)-3-(1,4-dihydroxy-2-tetralylmethylen)-2-oxindole] | 1.56 | 5.86 | 
2 | CC(N)C(=O)NC(C)C(=O)Nc1ccc2c(c1)C(=Cc1cc(O)c3c(c1O)CCCC3)C(=O)N2 (centres unmarked) [5-(alanylalanylamino)-3-(1,4-dihydroxy-2-tetralylmethylen)-2-oxindole trifluoroacetate] | 3.12 | 5.3 | 
3 | CC(N)C(=O)Nc1ccc2c(c1)C(=Cc1cc(O)c3c(c1O)CCCC3)C(=O)N2 (centres unmarked) [5-(alanylamino)-3-(1,4-dihydroxy-2-tetralylmethylen)-2-oxindole] | 10 | 8.31 | 
4 | NC(CCC(=O)O)C(=O)Nc1ccc2c(c1)C(=Cc1cc(O)c3c(c1O)CCCC3)C(=O)N2 (centres unmarked) [5-(glutamylamino)-3-(1,4-dihydroxy-2-tetralylmethylen)-2-oxindole] | 10 |  | 5.97

Reference: US6147073A, “Substituted tetralymethylen-Oxindoles analogues as tyrosine kinase inhibitors” (Pharmacia & Upjohn S.p.A., priority 1996, dated 2000)
